Data: PMC7307906, “Macrocyclic Modalities Combining Peptide Epitopes and Natural Product Fragments” (Journal of the American Chemical Society, 2020)

Assays:
[1] = target: T1, human MC1R (Homo sapiens, UniProt Q01726); test: cAMP assay (LANCE) in T-Rex-293 cells expressing MC1R; type: cell-based
T1 construct: expressed in transfected cells

[2] = target: T1, human MC1R; test: Melanocortin receptor radioligand binding (SPA, [125I]-NDP-α-MSH displacement), MC1R; details: competitive binding, mean (± SEM) of at least three independent experiments, read-out: IC50 hMC1R binding
[3] = target: T2, human MC5R (Homo sapiens, UniProt P33032); test: Melanocortin receptor radioligand binding (SPA, [125I]-NDP-α-MSH displacement), MC5R; details: competitive binding, [125I]-NDP-α-MSH; mean (± SEM) of at least three independent experiments; read-out: IC50 hMC5R binding
T2 construct: expressed in transfected cells; host or cells: HEK293-6E suspension cells, transient expression; membranes

[4] = target: hMC1−5R; test: Melanocortin receptor cAMP assay, result stated for all receptors together; type: cell-based, human; details: one bound printed for all receptors
Text: Example concentration response curves for selected PepNats in MC1R, MC3R, MC4R, MC5R radioligand binding assays and MC1R, MC3R, MC4R cAMP assays. Responses were normalized to reference agonist NDP -α-MSH and presented as % effect of control, with full competition in binding defined as -100% and full agonism in cAMP assays defined as […]
binding assay. Threshold to define a compound as active was set to -30% in binding assays and 20% in cAMP assays respectively. Data are from at least three independent experiments and error bars represent ± Standard Error of the […]
% s p e c ific b in d in g o f
(1 picture or pasted object on this page, not shown here) […]
to the elution profile of the crude product . The relevant fractions containing the desired product were collected, analyzed by RP-HPLC-MS and accordingly pooled and lyophilized.
HRMS were obtained on a Thermo Scientific LTQ Fleet Orbitrap mass spectrometer coupled to an Accela HPLC-System (HPLC column: Hypersyl GOLD, 50 mm x 1 mm, particle size 1.9 μm) equipped with an electron spray ionization source (ESI). The mass detection was recorded in the range of […]
2) B) Biochemical Assays Materials and Methods
Surface Plasmon Resonance (SPR)
All SPR experiments were conducted on a Biacore T200, S200 or 8K instrument (GE Healthcare) at 20 °C using HBS-P+ as running buffer (GE Healthcare). […]

[5] = target: T3, human MC3R (Homo sapiens, UniProt P41968); test: Melanocortin receptor radioligand binding (SPA, [125I]-NDP-α-MSH displacement), MC3R; details: competitive binding, mean (± SEM) of at least three independent experiments, read-out: IC50 hMC3R binding
T3 construct: expressed in transfected cells

[6] = target: T3, human MC3R; test: cAMP assay (LANCE) in T-Rex-293 cells expressing MC3R; type: cell-based; details: cAMP assay; mean (± SEM) of at least three independent experiments; read-out: EC50 hMC3R cAMP
[7] = target: T4, human MC4R (Homo sapiens, UniProt P32245); test: Melanocortin receptor radioligand binding (SPA, [125I]-NDP-α-MSH displacement), MC4R; details: competitive binding, mean (± SEM) of at least three independent experiments, read-out: IC50 hMC4R binding
T4 construct: expressed in transfected cells

[8] = target: T4, human MC4R; test: cAMP assay (LANCE) in T-Rex-293 cells expressing MC4R; type: cell-based; details: cAMP assay; mean (± SEM) of at least three independent experiments; read-out: EC50 hMC4R cAMP

T1 sequence (Q01726 whole entry): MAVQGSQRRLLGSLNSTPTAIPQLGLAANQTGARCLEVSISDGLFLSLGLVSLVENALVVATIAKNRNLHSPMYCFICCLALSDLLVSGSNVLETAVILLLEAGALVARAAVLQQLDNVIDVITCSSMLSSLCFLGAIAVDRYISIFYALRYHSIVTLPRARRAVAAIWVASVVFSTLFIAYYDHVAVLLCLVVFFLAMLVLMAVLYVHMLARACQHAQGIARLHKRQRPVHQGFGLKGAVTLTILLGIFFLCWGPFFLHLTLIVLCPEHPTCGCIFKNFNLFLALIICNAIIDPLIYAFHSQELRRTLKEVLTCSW
T3 sequence (P41968 whole entry): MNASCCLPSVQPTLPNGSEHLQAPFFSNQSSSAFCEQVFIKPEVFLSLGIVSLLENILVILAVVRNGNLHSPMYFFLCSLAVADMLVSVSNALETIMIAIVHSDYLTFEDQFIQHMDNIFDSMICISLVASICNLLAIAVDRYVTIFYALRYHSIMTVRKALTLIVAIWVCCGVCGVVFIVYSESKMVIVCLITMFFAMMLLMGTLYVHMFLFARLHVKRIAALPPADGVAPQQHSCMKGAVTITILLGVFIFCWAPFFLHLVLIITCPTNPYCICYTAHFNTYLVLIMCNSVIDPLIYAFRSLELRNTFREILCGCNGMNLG
T4 sequence (P32245 whole entry): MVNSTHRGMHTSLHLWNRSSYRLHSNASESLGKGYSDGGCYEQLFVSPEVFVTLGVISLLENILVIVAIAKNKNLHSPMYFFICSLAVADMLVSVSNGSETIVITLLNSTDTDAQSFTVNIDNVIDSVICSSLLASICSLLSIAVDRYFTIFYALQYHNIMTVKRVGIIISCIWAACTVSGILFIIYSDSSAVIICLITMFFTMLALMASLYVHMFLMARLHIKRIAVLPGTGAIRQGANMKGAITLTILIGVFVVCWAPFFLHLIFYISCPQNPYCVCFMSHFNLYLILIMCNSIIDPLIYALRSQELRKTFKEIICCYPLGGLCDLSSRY
T2 sequence (P33032 whole entry): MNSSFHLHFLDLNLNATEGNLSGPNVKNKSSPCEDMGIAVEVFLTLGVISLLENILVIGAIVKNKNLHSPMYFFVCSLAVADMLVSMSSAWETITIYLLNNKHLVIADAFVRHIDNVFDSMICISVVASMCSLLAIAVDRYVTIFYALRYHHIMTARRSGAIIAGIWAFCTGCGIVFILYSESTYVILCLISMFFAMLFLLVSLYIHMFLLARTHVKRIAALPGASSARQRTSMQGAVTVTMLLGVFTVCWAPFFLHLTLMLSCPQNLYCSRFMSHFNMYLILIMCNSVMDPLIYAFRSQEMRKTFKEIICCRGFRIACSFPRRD

Q: For CN1C(=O)[C@H]2N[C@@H](c3ccc(cc3)C(=O)NCCCC[C@@H](C(=O)N[C@@H](Cc3ccc(O)cc3)C(N)=O)NC(=O)[C@H](CC(N)=O)NC(=O)[C@@H](Cc3ccccc3)NC(=O)[C@@H](Cc3ccccc3)NC(=O)[C@H](CCCNC(=N)N)NC(=O)[C@@H]1Cc1ccccc1)[C@H]1C(=O)N(c3ccccc3)C(=O)[C@H]12 [K1-minor, [II-FRffNK ]Y], which “% Effect hMC1R cAMP at 100 µM” value ([1]; % effect at 100 µM, compounds not reaching an upper plateau (§)) is on record?
A: Its value is 30%.

Q: What about the EC50 ([1]; cAMP assay, mean (± SEM) of at least three independent experiments, read-out: EC50 hMC1R cAMP) of the same compound?
A: Its EC50 is over 100 µM.

Q: And the IC50 [2]?
A: The IC50 was over 100 µM.

Q: And the IC50 [3]?
A: Its IC50 is over 100 µM.

Q: And the EC50 [4]?
A: The EC50 was over 100 µM.

Q: And the IC50 [5]?
A: The IC50 was over 100 µM.

Q: What about the EC50 [6] of the same compound?
A: Its EC50 is over 100 µM.

Q: What about the IC50 [7] of the same compound?
A: Its IC50 is over 100 µM.

Q: What about the EC50 [8] of the same compound?
A: The EC50 was over 100 µM.
